Source: PMC12373846, “Hemoglobin as a pseudoperoxidase and drug target for oxidative stress-related diseases” (Signal Transduction and Targeted Therapy, 2025)
“And” between values parts separate entries of the source, which are not always exact repeats. Identical values can stand only once. Like-named read-outs stand apart in the source and are kept apart here.

Tests used:
mice = assay: Laser speckle contrast imaging of cerebral perfusion; type: in vivo, mouse
Description: To assess cerebral perfusion, mice were anesthetized with isoflurane (2-3% in 100% O2, maintained at 1.0%) and placed on a heating pad to maintain body temperature. Following scalp incision, the skull surface was exposed without thinning or craniotomy. LSCI was performed using a laser speckle imaging system (RWD Life Science), acquiring frames at 30 Hz. KDS12025 (0.1, 1, or 10 mg/kg/day) or saline was administered via retro-orbital injection immediately prior to imaging. Cerebral blood perfusion and vessel diameter (pipe diameter) were quantified using RWD’s proprietary LSCI analysis software. All imaging was conducted under identical illumination and acquisition parameters.

Lck kinase (h) = molecular target: T1, Lck kinase (h) (Homo sapiens, UniProt P06239); assay: SafetyScreen87 panel; type: biochemical; details: 1.00E-06, read-out: % Inhibition of Control Specific Binding (1st, 2nd, Mean)
T1 construct: purchased Eurofins Discovery (Cerep, France)
T1 sequence (P06239 whole entry): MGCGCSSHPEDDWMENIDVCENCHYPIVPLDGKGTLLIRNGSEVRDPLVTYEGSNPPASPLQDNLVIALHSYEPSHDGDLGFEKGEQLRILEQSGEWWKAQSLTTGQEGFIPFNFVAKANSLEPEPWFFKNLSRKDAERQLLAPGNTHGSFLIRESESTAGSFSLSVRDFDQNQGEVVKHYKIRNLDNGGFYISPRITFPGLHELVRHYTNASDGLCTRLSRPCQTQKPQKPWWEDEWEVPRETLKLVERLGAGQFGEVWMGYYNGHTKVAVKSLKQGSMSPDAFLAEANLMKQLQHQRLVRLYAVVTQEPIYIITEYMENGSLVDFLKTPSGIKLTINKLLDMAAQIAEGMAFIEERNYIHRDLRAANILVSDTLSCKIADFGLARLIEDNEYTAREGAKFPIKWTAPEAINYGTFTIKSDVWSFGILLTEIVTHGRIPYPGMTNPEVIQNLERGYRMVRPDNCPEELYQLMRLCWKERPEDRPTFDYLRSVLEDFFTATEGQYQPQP
Description: (§1) The possibility of KDS12025 on kinase off-target, the KINOMEscan panel of scanEDGE assay was conducted in DiscoverX (CA, USA) using a site-directed competition binding with the test compounds. The assay results are given in Supplementary Table 4 and experimental information is available on the DiscoverX web page (www.discoverx.com). Moreover, the Delta SafetyScreen87 panel assay was conducted in Eurofins Discovery (Cerep, France). The assay results are given in Supplementary Table 5 and experimental information is available on the DiscoverX web page (https://www.eurofinsdiscoveryservices.com).

COX1(h) = molecular target: T2, COX1(h) (Homo sapiens, UniProt P23219); assay: SafetyScreen87 panel; type: biochemical; details: 1.00E-06, read-out: % Inhibition of Control Specific Binding (1st, 2nd, Mean)
T2 construct: Eurofins Discovery (Cerep, France) SafetyScreen87 panel
T2 sequence (P23219 24-599): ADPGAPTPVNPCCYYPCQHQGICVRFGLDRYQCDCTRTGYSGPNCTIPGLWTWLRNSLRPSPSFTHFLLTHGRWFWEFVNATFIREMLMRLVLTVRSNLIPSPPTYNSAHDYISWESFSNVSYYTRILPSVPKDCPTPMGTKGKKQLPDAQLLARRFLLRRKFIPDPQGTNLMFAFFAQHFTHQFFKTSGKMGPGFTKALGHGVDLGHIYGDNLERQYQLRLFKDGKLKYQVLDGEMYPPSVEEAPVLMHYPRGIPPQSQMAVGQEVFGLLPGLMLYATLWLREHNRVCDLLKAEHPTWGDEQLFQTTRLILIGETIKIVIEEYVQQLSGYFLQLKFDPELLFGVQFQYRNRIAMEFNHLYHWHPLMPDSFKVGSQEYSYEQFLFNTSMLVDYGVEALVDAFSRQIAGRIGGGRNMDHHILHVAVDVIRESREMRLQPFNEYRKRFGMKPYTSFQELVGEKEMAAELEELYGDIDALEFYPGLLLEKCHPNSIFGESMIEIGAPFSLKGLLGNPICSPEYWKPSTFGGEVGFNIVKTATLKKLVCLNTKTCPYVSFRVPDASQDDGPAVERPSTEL
Description: as §1

PDE4D2 (h) = molecular target: T3, PDE4D2 (h) (Homo sapiens, UniProt Q08499); assay: SafetyScreen87 panel; type: biochemical
T3 construct: purchased Eurofins Discovery (Cerep, France)
Description: as §1

ACE (h) = molecular target: T4, ACE (h) (Homo sapiens, UniProt P12821); assay: SafetyScreen87 panel; type: biochemical; details: 1.00E-06, read-out: % Inhibition of Control Specific Binding (1st, 2nd, Mean)
T4 construct: purchased Eurofins Discovery (Cerep, France)
Description: as §1

COX2(h) = molecular target: T5, COX2(h) (Homo sapiens, UniProt P35354); assay: SafetyScreen87 panel; type: biochemical; details: 1.00E-06, read-out: % Inhibition of Control Specific Binding (1st, 2nd, Mean)
T5 construct: purchased Eurofins Discovery (Cerep, France)
T5 sequence (P35354 18-604): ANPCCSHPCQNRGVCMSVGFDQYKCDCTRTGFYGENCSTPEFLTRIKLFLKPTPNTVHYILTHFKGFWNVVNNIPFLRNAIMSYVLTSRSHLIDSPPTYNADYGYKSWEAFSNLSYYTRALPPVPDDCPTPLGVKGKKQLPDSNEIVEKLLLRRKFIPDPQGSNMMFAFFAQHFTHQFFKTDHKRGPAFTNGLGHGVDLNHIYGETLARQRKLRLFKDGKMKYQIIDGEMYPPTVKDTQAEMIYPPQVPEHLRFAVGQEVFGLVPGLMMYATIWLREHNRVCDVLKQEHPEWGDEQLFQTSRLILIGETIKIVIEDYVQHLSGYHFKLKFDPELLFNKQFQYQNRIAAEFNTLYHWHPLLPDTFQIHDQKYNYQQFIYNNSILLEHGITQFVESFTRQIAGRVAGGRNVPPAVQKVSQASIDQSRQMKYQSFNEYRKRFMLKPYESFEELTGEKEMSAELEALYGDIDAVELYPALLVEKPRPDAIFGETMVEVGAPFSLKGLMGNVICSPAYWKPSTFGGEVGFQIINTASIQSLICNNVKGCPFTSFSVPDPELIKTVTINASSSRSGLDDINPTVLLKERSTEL
Description: as §1

IRK (h) (InsR) = molecular target: T6, IRK (h) (InsR) (Homo sapiens, UniProt P06213); assay: SafetyScreen87 panel; type: biochemical
T6 construct: purchased Eurofins Discovery (Cerep, France)
Description: as §1

ATPase (Na+/K+) = assay: SafetyScreen87 panel; type: biochemical; details: 1.00E-06; read-out: % Inhibition of Control Specific Binding (1st, 2nd, Mean)
Description: as §1

acetylcholinesterase (h) = molecular target: T7, acetylcholinesterase (h) (Homo sapiens, UniProt P22303); assay: SafetyScreen87 panel; type: biochemical; details: 1.00E-06, read-out: % Inhibition of Control Specific Binding (1st, 2nd, Mean)
T7 construct: purchased Eurofins Discovery (Cerep, France)
T7 sequence (P22303 32-614): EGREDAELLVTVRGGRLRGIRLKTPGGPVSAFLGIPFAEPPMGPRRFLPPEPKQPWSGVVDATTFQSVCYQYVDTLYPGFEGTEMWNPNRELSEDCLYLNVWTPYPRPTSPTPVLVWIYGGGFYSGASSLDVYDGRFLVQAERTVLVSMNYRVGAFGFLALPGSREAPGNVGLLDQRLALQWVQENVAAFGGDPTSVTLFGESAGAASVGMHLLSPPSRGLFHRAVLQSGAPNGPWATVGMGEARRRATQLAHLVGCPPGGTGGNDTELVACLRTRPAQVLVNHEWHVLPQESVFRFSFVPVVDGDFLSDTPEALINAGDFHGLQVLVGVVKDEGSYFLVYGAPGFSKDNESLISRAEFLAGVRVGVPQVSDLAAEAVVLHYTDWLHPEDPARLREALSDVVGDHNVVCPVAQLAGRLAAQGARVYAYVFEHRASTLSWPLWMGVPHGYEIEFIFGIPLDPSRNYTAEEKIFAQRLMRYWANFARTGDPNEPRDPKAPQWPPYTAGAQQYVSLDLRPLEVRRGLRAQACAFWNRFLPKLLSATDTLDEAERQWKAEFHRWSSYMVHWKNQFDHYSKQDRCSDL
Description: as §1

[1] = molecular target: T8, MAO-B (h) recombinant enzyme (Homo sapiens, UniProt P27338); assay: SafetyScreen87 panel; type: biochemical; details: 1.00E-06, read-out: % Inhibition of Control Specific Binding (1st, 2nd, Mean)
T8 construct: purchased Eurofins Discovery (Cerep, France)
T8 sequence (P27338 whole entry): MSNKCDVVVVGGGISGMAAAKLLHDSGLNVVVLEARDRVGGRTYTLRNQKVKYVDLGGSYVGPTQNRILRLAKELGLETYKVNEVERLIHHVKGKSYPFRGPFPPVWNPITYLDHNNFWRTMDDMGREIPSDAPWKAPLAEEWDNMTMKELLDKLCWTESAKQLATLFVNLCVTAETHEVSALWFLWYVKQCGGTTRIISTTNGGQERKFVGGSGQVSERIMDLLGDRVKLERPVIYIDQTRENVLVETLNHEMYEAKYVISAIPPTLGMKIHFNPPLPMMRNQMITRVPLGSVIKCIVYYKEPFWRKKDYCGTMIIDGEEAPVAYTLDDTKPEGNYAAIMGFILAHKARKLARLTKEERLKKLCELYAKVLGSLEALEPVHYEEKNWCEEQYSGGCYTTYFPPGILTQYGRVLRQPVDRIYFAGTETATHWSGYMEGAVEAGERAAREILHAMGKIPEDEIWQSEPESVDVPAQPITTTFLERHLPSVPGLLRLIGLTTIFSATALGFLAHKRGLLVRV
Description: as §1

cathepsin G (h) = molecular target: T9, cathepsin G (h) (Homo sapiens, UniProt P08311); assay: SafetyScreen87 panel; type: biochemical; details: 1.00E-06, read-out: % Inhibition of Control Specific Binding (1st, 2nd, Mean)
T9 construct: purchased Eurofins Discovery (Cerep, France)
T9 sequence (P08311 21-255): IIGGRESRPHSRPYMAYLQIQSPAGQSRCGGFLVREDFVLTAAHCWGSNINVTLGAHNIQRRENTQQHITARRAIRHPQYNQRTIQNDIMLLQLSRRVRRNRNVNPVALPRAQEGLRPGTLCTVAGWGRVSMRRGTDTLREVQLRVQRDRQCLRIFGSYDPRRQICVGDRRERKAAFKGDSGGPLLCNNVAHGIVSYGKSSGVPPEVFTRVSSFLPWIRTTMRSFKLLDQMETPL
Description: as §1

PDE3A (h) = molecular target: T10, PDE3A (h) (Homo sapiens, UniProt Q14432); assay: SafetyScreen87 panel; type: biochemical
T10 construct: purchased Eurofins Discovery (Cerep, France)
Description: as §1

PKCalpha (h) = molecular target: T11, PKCalpha (h) (Homo sapiens, UniProt P17252); assay: SafetyScreen87 panel; type: biochemical; details: 1.00E-06, read-out: % Inhibition of Control Specific Binding (1st, 2nd, Mean)
T11 construct: purchased Eurofins Discovery (Cerep, France)
Description: as §1

[2] = molecular target: T12, CB1 (h) (agonist radioligand) (Homo sapiens, UniProt P21554); assay: SafetyScreen87 panel; details: 1.0E-06 M, read-out: % Inhibition of Control Specific Binding (1st, 2nd, Mean)
T12 construct: purchased DiscoverX KINOMEscan scanEDGE; Eurofins Cerep SafetyScreen87
T12 sequence (P21554 whole entry): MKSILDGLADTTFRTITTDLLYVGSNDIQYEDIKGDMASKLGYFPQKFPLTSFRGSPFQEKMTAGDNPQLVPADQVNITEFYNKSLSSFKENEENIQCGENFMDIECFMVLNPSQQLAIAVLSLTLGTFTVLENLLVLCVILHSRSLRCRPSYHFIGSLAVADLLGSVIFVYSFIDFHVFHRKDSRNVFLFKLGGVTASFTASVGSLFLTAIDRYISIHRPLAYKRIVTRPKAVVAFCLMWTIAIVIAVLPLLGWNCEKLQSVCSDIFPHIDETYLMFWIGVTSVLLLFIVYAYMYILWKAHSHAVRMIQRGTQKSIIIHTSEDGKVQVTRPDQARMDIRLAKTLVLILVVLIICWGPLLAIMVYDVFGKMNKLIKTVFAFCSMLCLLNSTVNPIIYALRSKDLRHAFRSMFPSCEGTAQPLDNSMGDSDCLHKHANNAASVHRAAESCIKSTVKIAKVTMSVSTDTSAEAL
In short: (§2)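 Test compound screened for kinase off-target interaction via scanEDGE competition binding directed at the active site, and for broader pharmacological off-target activity via Delta SafetyScreen87.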

[3] = molecular target: T13, 5-HT transporter (h) (antagonist radioligand) (Homo sapiens, UniProt P31645); assay: SafetyScreen87 panel; details: 1.0E-06 M, read-out: % Inhibition of Control Specific Binding (1st, 2nd, Mean)
T13 construct: Eurofins Discovery (Cerep, France) SafetyScreen87 panel
T13 sequence (P31645 whole entry): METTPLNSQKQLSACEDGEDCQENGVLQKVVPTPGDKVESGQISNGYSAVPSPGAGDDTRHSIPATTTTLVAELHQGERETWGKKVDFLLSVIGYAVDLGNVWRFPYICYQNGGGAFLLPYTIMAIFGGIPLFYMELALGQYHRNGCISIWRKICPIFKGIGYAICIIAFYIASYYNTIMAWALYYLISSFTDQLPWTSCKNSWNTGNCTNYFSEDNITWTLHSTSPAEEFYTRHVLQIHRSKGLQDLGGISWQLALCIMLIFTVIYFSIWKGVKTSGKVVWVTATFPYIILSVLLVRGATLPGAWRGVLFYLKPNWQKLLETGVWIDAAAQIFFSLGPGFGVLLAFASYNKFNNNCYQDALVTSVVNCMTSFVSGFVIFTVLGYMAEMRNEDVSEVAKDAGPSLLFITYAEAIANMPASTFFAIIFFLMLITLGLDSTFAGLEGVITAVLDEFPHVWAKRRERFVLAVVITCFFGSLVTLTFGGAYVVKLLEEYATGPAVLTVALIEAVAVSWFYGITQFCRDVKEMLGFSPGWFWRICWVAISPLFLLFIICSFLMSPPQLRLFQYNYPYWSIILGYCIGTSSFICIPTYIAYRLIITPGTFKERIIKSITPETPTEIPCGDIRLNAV
In short: as §2

[4] = 1.00E-06; read-out: % Inhibition of Control Specific Binding (1st, 2nd, Mean)
[5] = read-out: % Inhibition of Control Specific Binding (1st, 2nd, Mean); 1.00E-06

In the case of `CNc1ccc(NCCc2ccccc2OC)cc1.Cl` [KDS12025, N^1-(2-methoxyphenethyl)-N^4-methylbenzene-1,4-diamine hydrochloride salt], the “overall cerebral perfusion (LSCI, Fig. S8f)” value (shortened to “overall cerebral perfusion”) (mice; 0.1 mpk retro-orbital) is reported as 1169±10.7, the “vessel diameter (pipe diameter, Fig. S8g)” value (from here on “vessel diameter”) (mice; 0.1 mpk retro-orbital) is reported as 193±3.8 and the “overall cerebral perfusion” value (mice; 1 mpk retro-orbital) is reported as 1205±10.4. The “vessel diameter” value (mice; 1 mpk retro-orbital) was 200±2.3, the “overall cerebral perfusion” value (mice; 10 mpk retro-orbital) was 1190±7.4 and the “vessel diameter” value (mice; 10 mpk retro-orbital) was 203±3.9. The activity (Lck kinase (h); mean) was 94.1%, the activity (Lck kinase (h)) was 95.9% and 92.2% and the activity (COX1(h); mean) was 59.3%. For the same molecule, the activity (COX1(h)) was 62.5% and 56.1%, the activity (PDE4D2 (h); [4]) was 95.3% and 102% and the activity (PDE4D2 (h); [5]) was 98.7%. The activity (ACE (h); mean) was 100%, the activity (ACE (h)) was 101% and 99.4% and the activity (COX2(h); mean) was 43.8%. For the same molecule, the activity (COX2(h)) was 42.2% and 45.3%, the activity (IRK (h) (InsR); [4]) was 109% and the activity (IRK (h) (InsR); [5]) was 100%. The activity (ATPase (Na+/K+)) was 97.8%, the activity (acetylcholinesterase (h); mean) was 91.7% and the activity (acetylcholinesterase (h)) was 92.6% and 90.8%. For the same molecule, the activity ([1]; mean) was 119%, the activity [1] was 116% and 121% and the activity (cathepsin G (h); mean) was 100%. The activity (cathepsin G (h)) was 97.2% and 103%, the activity (PDE3A (h); [4]) was 89.8% and the activity (PDE3A (h); [5]) was 87.1% and 92.4%. The activity (PKCalpha (h); mean) was 104%, the activity (PKCalpha (h)) was 105% and 103% and the activity ([2]; mean) was 80%. For the same molecule, the activity [2] was 81.7% and 78.4%, the activity ([3]; mean) was 54.6% and the activity [3] was 62.9% and 46.4%.
